Laboratory results published in paper PMC5909127, “Optimization of a “bump-and-hole” approach to allele-selective BET bromodomain inhibition” (Chemical Science, 2018).

Experiments:
BRDT BD2 WT = BRDT BD2 WT (Homo sapiens, UniProt Q58F21); assay: competitive AlphaLISA; format: binding; conditions: read-out: AlphaLISA pIC50 Value BRDT BD2 WT (converted)
BRD3 BD2 L/V [1] = molecular target: T1, BRD3 BD2 L/V (Homo sapiens, UniProt Q15059, L345V); assay: competitive AlphaLISA; format: binding; conditions: read-out: AlphaLISA pIC50 Value BRD3 BD2 L/V (converted)
T1 sequence (Q15059 306-416 L345V limits assumed): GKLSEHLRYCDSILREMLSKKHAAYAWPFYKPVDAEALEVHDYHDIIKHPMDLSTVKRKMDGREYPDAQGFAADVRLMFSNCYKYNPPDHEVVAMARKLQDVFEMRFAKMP

BRD2 BD1 L/V [2] = molecular target: T2, BRD2 BD1 L/V (Homo sapiens, UniProt P25440, L110V); assay: ITC; format: binding; conditions: for ΔH BRD2 BD1 L/V / Kd: ITC; for Kd: 30°C, read-out: Kd BRD2 BD1 L/V
T2 sequence (P25440 71-176 L110V limits assumed): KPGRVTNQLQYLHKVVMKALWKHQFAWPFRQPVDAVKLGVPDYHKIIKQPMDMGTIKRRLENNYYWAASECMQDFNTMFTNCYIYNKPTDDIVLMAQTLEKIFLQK

BRD3 BD1 WT [3] = molecular target: T3, BRD3 BD1 WT (Homo sapiens, UniProt Q15059); assay: ITC; format: binding; conditions: for Kd: 30°C, read-out: Kd BRD3 BD1 WT
T3 sequence (Q15059 24-144): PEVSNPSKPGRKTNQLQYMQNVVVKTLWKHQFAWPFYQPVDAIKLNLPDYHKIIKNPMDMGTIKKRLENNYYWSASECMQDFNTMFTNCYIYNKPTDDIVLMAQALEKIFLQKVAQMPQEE

[4] = molecular target: WT somatic BET bromodomains; assay: ITC; conditions: for ITC pKd ± SD WT: mean and SD of all somatic bromodomains
[5] = system: L/V somatic BET bromodomains; assay: ITC; conditions: for ITC pKd ± SD Δ: L/V minus WT
BRD3 BD1 L/V [6] = molecular target: T4, BRD3 BD1 L/V (Homo sapiens, UniProt Q15059, L70V); assay: ITC; format: binding; conditions: for ΔH BRD3 BD1 L/V / Kd: ITC; for Kd: 30°C, read-out: Kd BRD3 BD1 L/V
T4 sequence (Q15059 24-144 L70V limits assumed): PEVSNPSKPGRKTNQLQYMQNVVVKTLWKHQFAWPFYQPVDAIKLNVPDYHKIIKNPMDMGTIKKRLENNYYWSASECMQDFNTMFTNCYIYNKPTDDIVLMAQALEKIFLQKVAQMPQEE

BRD2 BD1 WT [7] = molecular target: T5, BRD2 BD1 WT (Homo sapiens, UniProt P25440); assay: ITC; format: binding; conditions: for Kd: 30°C, read-out: Kd BRD2 BD1 WT
T5 sequence (P25440 71-176): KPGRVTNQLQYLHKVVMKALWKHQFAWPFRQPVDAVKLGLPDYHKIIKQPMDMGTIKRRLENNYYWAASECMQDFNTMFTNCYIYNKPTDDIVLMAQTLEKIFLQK

BRD2 BD1 L/V [8] = molecular target: T2, BRD2 BD1 L/V; assay: competitive AlphaLISA; format: binding; conditions: read-out: AlphaLISA pIC50 Value BRD2 BD1 L/V (converted)
in vitro [9] = conditions: PAMPA, pH 7.4
BRD2 BD2 WT [10] = molecular target: T6, BRD2 BD2 WT (Homo sapiens, UniProt P25440); assay: ITC; format: binding; conditions: for Kd: 30°C, read-out: Kd BRD2 BD2 WT
T6 sequence (P25440 344-455): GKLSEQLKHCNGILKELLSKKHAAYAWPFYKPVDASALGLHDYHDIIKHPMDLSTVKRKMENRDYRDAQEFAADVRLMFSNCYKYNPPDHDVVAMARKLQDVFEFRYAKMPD

[11] = molecular target: WT BET bromodomains (BD1 and BD2 of BRD2, BRD3 and BRD4); assay: competitive AlphaLISA (Bio-JQ1 displacement); format: binding, human; conditions: mean and SD of all somatic bromodomains; active enantiomer concentration
BRD3 BD1 L/V [12] = molecular target: T4, BRD3 BD1 L/V; assay: competitive AlphaLISA; format: binding; conditions: read-out: AlphaLISA pIC50 Value BRD3 BD1 L/V (converted)
[13] = system: L/V BET bromodomains (BD1 and BD2 of BRD2, BRD3 and BRD4); assay: competitive AlphaLISA (Bio-JQ1 displacement); format: binding, human; conditions: for AlphaLISA pIC50 ± SD Δ: L/V minus WT
BRD2 BD2 L/V [14] = molecular target: T7, BRD2 BD2 L/V (Homo sapiens, UniProt P25440, L383V); assay: ITC; format: binding; conditions: for ΔH BRD2 BD2 L/V / Kd: ITC; for Kd: 30°C, read-out: Kd BRD2 BD2 L/V
T7 sequence (P25440 344-455 L383V): as the sequence (P25440 344-455) above, with L40V counted along it

in vitro [15] = conditions: BALB/c, mouse, plasma, pH 7.4
BRDT BD2 L/V = BRDT BD2 L/V (Homo sapiens, UniProt Q58F21, L306V); assay: competitive AlphaLISA; format: binding; conditions: read-out: AlphaLISA pIC50 Value BRDT BD2 L/V (converted)
BRD2 BD2 WT [16] = molecular target: T6, BRD2 BD2 WT; assay: competitive AlphaLISA; format: binding; conditions: read-out: AlphaLISA pIC50 Value BRD2 BD2 WT (converted)
BRD3 BD2 WT [17] = molecular target: T8, BRD3 BD2 WT (Homo sapiens, UniProt Q15059); assay: ITC; format: binding; conditions: for Kd: 30°C, read-out: Kd BRD3 BD2 WT
T8 sequence (Q15059 306-416): as the sequence (Q15059 306-416 L345V limits assumed) above, with V40L counted along it

BRD3 BD2 L/V [18] = molecular target: T1, BRD3 BD2 L/V; assay: ITC; format: binding; conditions: for ΔH BRD3 BD2 L/V / Kd: ITC; for Kd: 30°C, read-out: Kd BRD3 BD2 L/V
BRD3 BD2 WT [19] = molecular target: T8, BRD3 BD2 WT; assay: competitive AlphaLISA; format: binding; conditions: read-out: AlphaLISA pIC50 Value BRD3 BD2 WT (converted)
BRD3 BD1 WT [20] = molecular target: T3, BRD3 BD1 WT; assay: competitive AlphaLISA; format: binding; conditions: read-out: AlphaLISA pIC50 Value BRD3 BD1 WT (converted)
BRD4 BD1 L/V [21] = molecular target: T9, BRD4 BD1 L/V (Homo sapiens, UniProt O60885, L94V); assay: competitive AlphaLISA; format: binding; conditions: read-out: AlphaLISA pIC50 Value BRD4 BD1 L/V (converted)
BRD4 BD2 WT [22] = molecular target: T10, BRD4 BD2 WT (Homo sapiens, UniProt O60885); assay: ITC; format: binding; conditions: ITC, 30°C; read-out: Kd BRD4 BD2 WT
BRD4 BD2 L/V [23] = molecular target: T11, BRD4 BD2 L/V (Homo sapiens, UniProt O60885, L387V); assay: competitive AlphaLISA; format: binding; conditions: read-out: AlphaLISA pIC50 Value BRD4 BD2 L/V (converted)
BRD4 BD1 WT [24] = molecular target: T12, BRD4 BD1 WT (Homo sapiens, UniProt O60885); assay: ITC; format: binding; conditions: ITC, 30°C; read-out: Kd BRD4 BD1 WT
BRD4 BD2 WT [25] = molecular target: T10, BRD4 BD2 WT; assay: competitive AlphaLISA; format: binding; conditions: read-out: AlphaLISA pIC50 Value BRD4 BD2 WT (converted)
BRD2 BD1 WT [26] = molecular target: T5, BRD2 BD1 WT; assay: competitive AlphaLISA; format: binding; conditions: read-out: AlphaLISA pIC50 Value BRD2 BD1 WT (converted)
BRD4 BD1 L/V [27] = molecular target: T9, BRD4 BD1 L/V; assay: ITC; format: binding
BRD4 BD1 WT [28] = molecular target: T12, BRD4 BD1 WT; assay: competitive AlphaLISA; format: binding; conditions: read-out: AlphaLISA pIC50 Value BRD4 BD1 WT (converted)
BRD2 BD2 L/V [29] = molecular target: T7, BRD2 BD2 L/V; assay: competitive AlphaLISA; format: binding; conditions: read-out: AlphaLISA pIC50 Value BRD2 BD2 L/V (converted)
BRDT BD1 WT = BRDT BD1 WT (Homo sapiens, UniProt Q58F21); assay: competitive AlphaLISA; format: binding; conditions: read-out: AlphaLISA pIC50 Value BRDT BD1 WT (converted)
BRD4 BD2 L/V [30] = molecular target: T11, BRD4 BD2 L/V; assay: ITC; format: binding

In the case of CCNC(=O)[C@H](C)[C@@H]1N=C(c2ccc(Cl)cc2)c2cc(OC)ccc2-n2c(C)nnc21 (relative stereo) [Compound 16], the IC50 (BRDT BD2 WT) is reported as 7.94 µM, the IC50 (BRD3 BD2 L/V [1]) is reported as 0.0794 µM and the “ΔH BRD2 BD1 L/V” value (BRD2 BD1 L/V [2]) is reported as -16.3 kcal/mol. The Kd (BRD2 BD1 L/V [2]) was 0.12 µM, the “ΔH BRD3 BD1 WT” value (BRD3 BD1 WT [3]; ITC) was -8.8 kcal/mol and the “N BRD3 BD1 WT” value (BRD3 BD1 WT [3]; ITC stoichiometry) was 0.81. The Kd (BRD3 BD1 WT [3]; ITC) was 1.6 µM, the “ITC pKd ± SD WT” value [4] was 5.6 ± 0.3 and the “ITC pKd ± SD Δ” value [5] was 1.3 ± 0.3. For the same compound, the “ΔH BRD3 BD1 L/V” value (BRD3 BD1 L/V [6]) was -19.0 kcal/mol, the Kd (BRD3 BD1 L/V [6]) was 0.06 µM and the “ΔH BRD2 BD1 WT” value (BRD2 BD1 WT [7]; ITC) was -4.5 kcal/mol. The “N BRD2 BD1 WT” value (BRD2 BD1 WT [7]; ITC stoichiometry) was 0.94, the Kd (BRD2 BD1 WT [7]; ITC) was 2.2 µM and the IC50 (BRD2 BD1 L/V [8]) was 0.398 µM. For the same compound, the Papp (in vitro [9]) was 2.6 ×10⁻⁶ cm/s, the “ΔH BRD2 BD2 WT” value (BRD2 BD2 WT [10]; ITC) was -3.9 kcal/mol and the “N BRD2 BD2 WT” value (BRD2 BD2 WT [10]; ITC stoichiometry) was 0.65. For the same compound, the Kd (BRD2 BD2 WT [10]; ITC) was 2.4 µM, the “AlphaLISA pIC50 ± SD WT” value [11] was 5.3 ± 0.2 and the IC50 (BRD3 BD1 L/V [12]) was 0.1 µM. For the same compound, the “AlphaLISA pIC50 ± SD Δ” value [13] was 1.4 ± 0.2, the “ΔH BRD2 BD2 L/V” value (BRD2 BD2 L/V [14]) was -9.9 kcal/mol and the Kd (BRD2 BD2 L/V [14]) was 0.19 µM. For the same compound, the half-life at 50 µM (in vitro [15]) was greater than 3 h, the IC50 (BRDT BD2 L/V) was 0.398 µM and the IC50 (BRD2 BD2 WT [16]) was 5.01 µM. For the same compound, the “ΔH BRD3 BD2 WT” value (BRD3 BD2 WT [17]; ITC) was -6.0 kcal/mol, the “N BRD3 BD2 WT” value (BRD3 BD2 WT [17]; ITC stoichiometry) was 0.88 and the Kd (BRD3 BD2 WT [17]; ITC) was 1.5 µM. The “ΔH BRD3 BD2 L/V” value (BRD3 BD2 L/V [18]) was -12.9 kcal/mol, the Kd (BRD3 BD2 L/V [18]) was 0.13 µM and the IC50 (BRD3 BD2 WT [19]) was 3.98 µM. The IC50 (BRD3 BD1 WT [20]) was 2 µM.

In the case of CCNC(=O)[C@H](CC)[C@@H]1N=C(c2ccc(Cl)cc2)c2cc(OC)ccc2-n2c(C)nnc21 (relative stereo) [Compound 17], the IC50 (BRDT BD2 WT) is reported as 79.4 µM, the IC50 (BRD3 BD2 L/V [1]) is reported as 0.794 µM and the IC50 (BRD4 BD1 L/V [21]) is reported as 2 µM. For the same compound, the “ΔH BRD2 BD1 L/V” value (BRD2 BD1 L/V [2]) was -10.2 kcal/mol, the “N BRD2 BD1 L/V” value (BRD2 BD1 L/V [2]; ITC stoichiometry) was 0.97 and the Kd (BRD2 BD1 L/V [2]) was 0.96 µM. For the same compound, the Kd (BRD4 BD2 WT [22]) was greater than 60 µM, the Kd (BRD3 BD1 WT [3]; ITC) was greater than 60 µM and the “binding to any WT BET bromodomain” value ([4]; ITC) was “no detectable binding”. For the same compound, the “ITC pKd ± SD WT” value [4] was less than 4.2, the “ITC pKd ± SD Δ” value [5] was greater than 1.8 ± 0.2 and the “ITC pKd ± SD L/V” value ([5]; mean and SD of all somatic bromodomains) was 6.0 ± 0.2. The “ΔH BRD3 BD1 L/V” value (BRD3 BD1 L/V [6]) was -9.4 kcal/mol, the “N BRD3 BD1 L/V” value (BRD3 BD1 L/V [6]; ITC stoichiometry) was 1.07 and the Kd (BRD3 BD1 L/V [6]) was 0.74 µM. For the same compound, the Kd (BRD2 BD1 WT [7]; ITC) was greater than 60 µM, the IC50 (BRD2 BD1 L/V [8]) was 3.16 µM and the Papp (in vitro [9]) was 4.5 ×10⁻⁶ cm/s. It also gave an IC50 (BRD4 BD2 L/V [23]) of 2 µM, a Kd (BRD4 BD1 WT [24]) greater than 60 µM and a Kd (BRD2 BD2 WT [10]; ITC) greater than 60 µM. For the same compound, the “AlphaLISA pIC50 ± SD WT” value [11] was 4.4 ± 0.1, the IC50 (BRD4 BD2 WT [25]) was 63.1 µM and the IC50 (BRD3 BD1 L/V [12]) was 0.501 µM. The “AlphaLISA pIC50 ± SD Δ” value [13] was 1.5 ± 0.2, the “AlphaLISA pIC50 ± SD L/V” value ([13]; mean and SD of all somatic bromodomains, active enantiomer concentration) was 5.9 ± 0.3 and the “ΔH BRD2 BD2 L/V” value (BRD2 BD2 L/V [14]) was -5.3 kcal/mol. For the same compound, the “N BRD2 BD2 L/V” value (BRD2 BD2 L/V [14]; ITC stoichiometry) was 0.94, the Kd (BRD2 BD2 L/V [14]) was 1.3 µM and the half-life at 50 µM (in vitro [15]) was greater than 3 h. It also gave an IC50 (BRDT BD2 L/V) of 5.01 µM, an IC50 (BRD2 BD2 WT [16]) of 25.1 µM and a Kd (BRD3 BD2 WT [17]; ITC) greater than 60 µM. The IC50 (BRD2 BD1 WT [26]) was 63.1 µM, the “ΔH BRD4 BD1 L/V” value (BRD4 BD1 L/V [27]; ITC) was -5.9 kcal/mol and the “N BRD4 BD1 L/V” value (BRD4 BD1 L/V [27]; ITC stoichiometry) was 0.99. The Kd (BRD4 BD1 L/V [27]; ITC, 30°C, read-out: Kd BRD4 BD1 L/V) was 1.6 µM, the “ΔH BRD3 BD2 L/V” value (BRD3 BD2 L/V [18]) was -4.7 kcal/mol and the “N BRD3 BD2 L/V” value (BRD3 BD2 L/V [18]; ITC stoichiometry) was 0.68. The Kd (BRD3 BD2 L/V [18]) was 0.61 ± 0.09 µM, the IC50 (BRD4 BD1 WT [28]) was 50.1 µM and the IC50 (BRD2 BD2 L/V [29]) was 1.26 µM. The IC50 (BRD3 BD2 WT [19]) was 39.8 µM, the IC50 (BRDT BD1 WT) was 63.1 µM and the IC50 (BRD3 BD1 WT [20]) was 31.6 µM. The “ΔH BRD4 BD2 L/V” value (BRD4 BD2 L/V [30]; ITC) was -3.7 kcal/mol, the “N BRD4 BD2 L/V” value (BRD4 BD2 L/V [30]; ITC stoichiometry) was 0.99 and the Kd (BRD4 BD2 L/V [30]; ITC, 30°C, read-out: Kd BRD4 BD2 L/V) was 1 µM.
